Assays:
Turnip (TP) [1] = assay: Pre-emergence herbicide test; type: in vivo, Brassica sp.; details: Brassica rapa, pre-emergence, 336 h, two weeks after treatment
Procedure, shortened: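 Turnip (Brassica sp.) seeds were surface sown in 3' plastic pots of potting soil, covered with a thin layer of screened soil, and sub-irrigated in greenhouse trays. Pots were seeded one day ahead of treatment, sprayed pre-emergence under a hood with a fixed nozzle and moving belt, then kept in the greenhouse.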

Johnson grass (JG) = assay: Pre-emergence herbicide test; type: in vivo, Sorgum helepense; details: Sorghum halepense, 336 h, two weeks after treatment
Procedure, shortened: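 Pots seeded one day before spraying; compound applied pre-emergence at 8 lbs/acre (or 4 lbs/acre) in 38 gallons/acre spray volume. Sub-irrigated in greenhouse; injury/control rated visually two weeks after treatment.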

Cotton (CT) [2] = assay: Post-emergence herbicide test; type: in vivo, Gossypium hirsutum var. DPL smooth leaf; details: Gossypium hirsutum, post-emergence, 336 h, two weeks after treatment
Procedure, shortened: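 Cotton (Gossypium hirsutum var. DPL smooth leaf) was grown in 3' plastic pots of potting soil, four seeds per pot, planted at a depth equal to the seed diameter and watered by sub-irrigation. At the stage of expanded cotyledons with the first true leaf 1' long, plants were sprayed post-emergence in a hood with a fixed nozzle over a moving belt. Percent control was rated visually two weeks later.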

Corn (CN) = assay: Pre-emergence herbicide test; type: in vivo; details: Zea mays, 336 h, two weeks after treatment
Procedure, shortened: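 Four corn seeds per pot, sown at seed-diameter depth one day before spraying, got soil surface treatment at 8 lbs/acre (4 lbs/acre formulations also prepared) in 38 gallons/acre. Pots were greenhouse-held with sub-irrigation only. Injury or control was scored visually two weeks after treatment.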

Amaranth pigweed (PW) = assay: Pre-emergence herbicide test; type: in vivo, Amaranthus retroflexus; details: 336 h, two weeks after treatment
Method: All crop and weed species were planted individually in 3' plastic pots containing potting soil. Four seeds each of corn, cotton, and snapbeans were seeded to a depth equal to the diameter of the seed. All other species were surface seeded and sprinkled with screened soil in an amount sufficient to cover the seed. Immediately after planting, all pots were watered by sub-irrigation in greenhouse trays. Pots for the pre-emergence phase were seeded one day before treatment.
Compounds were tested at rates of application equivalent to 8 lbs. of actual compound per acre in a spray volume of 38 gallons per acre. Spray hood constants required to deliver the above volume are as follows:
Formulations for spray applications were prepared in 50 ml volumes with the following three components:
Formulations for the 4 lbs/acre rate were prepared by adjusting the amount of active ingredient accordingly.
Spray applications were made in a hood containing a removable belt and fixed spray nozzle. For passage through the spray hood, one pot of each specie (pre-emergence phase) was placed on the rear half of the flat. Treatments were removed to the greenhouse after spraying. Watering during the observation period was done only by sub-irrigation.
Two weeks after treatment, pre- and post-emergence injury or control was visually rated, and the results were as shown in the following tables. Pre-emergence data are provided in TABLE III and post-emergence data are provided in TABLE IV, for compounds having the formula illustrated in TABLE I. Correspondingly, pre-emergence and post-emergence data, respectively, are set forth in TABLES V AND VI, for compounds having the formula illustrated in TABLE II.

Bean (BN) [3] = assay: Post-emergence herbicide test; type: in vivo, Phaseolus vulgaris var. Black Valentine; details: Phaseolus vulgaris, post-emergence, 336 h, two weeks after treatment
Procedure, shortened: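 Snapbean (Phaseolus vulgaris var. Black Valentine) was tested post-emergence. Four seeds were sown in 3' plastic pots of potting soil at a depth equal to the seed diameter, then sub-irrigated in greenhouse trays. Planting dates were staggered so plants were sprayed once primary leaves had expanded, with the growing point at the primary leaf nodes.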

Crabgrass (CG) [4] = assay: Post-emergence herbicide test; type: in vivo, Digitaria sanquinalis; details: Digitaria sanguinalis, post-emergence, 336 h, two weeks after treatment
Procedure, shortened: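 Crabgrass (Digitaria sanquinalis) was surface seeded individually in 3' plastic pots of potting soil, covered with screened soil, and watered by sub-irrigation in greenhouse trays. Planting was staggered so seedlings reached the target stage together. Post-emergence sprays were applied in a hood with a removable belt and fixed nozzle, and control was visually rated two weeks after treatment.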

Barnyard grass (BG) = assay: Pre-emergence herbicide test; type: in vivo; details: Echinochloa crus-galli, 336 h, two weeks after treatment
Procedure, shortened: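 Barnyard grass surface-seeded in potting soil and sprayed pre-emergence one day after seeding, at 8 or 4 lb compound/acre in 38 gal/acre spray volume. Pots kept in greenhouse with sub-irrigation only; injury or control rated visually two weeks after treatment.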

Cotton (CT) [5] = assay: Pre-emergence herbicide test; type: in vivo, Gossypium hirsutum var. DPL smooth leaf; details: Gossypium hirsutum, 336 h, two weeks after treatment
Procedure, shortened: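 Crop and weed species seeded one day before treatment, then sprayed pre-emergence at 8 lbs actual compound per acre (also 4 lbs/acre formulations) in 38 gallons per acre. Pots kept in greenhouse with sub-irrigation only; injury or control visually rated two weeks after treatment.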

Crabgrass (CG) [6] = assay: Pre-emergence herbicide test; type: in vivo, Digitaria sanquinalis; details: Digitaria sanguinalis, pre-emergence, 336 h, two weeks after treatment
Procedure, shortened: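 Crabgrass (Digitaria sanquinalis) was surface seeded in 3' plastic pots of potting soil, covered with screened soil, and watered by sub-irrigation in greenhouse trays. Pots were seeded one day before spraying in a hood with a moving belt and fixed nozzle. Plants stayed in the greenhouse on sub-irrigation, and pre-emergence control was rated visually two weeks after treatment.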

Turnip (TP) [7] = assay: Post-emergence herbicide test; type: in vivo, Brassica sp.; details: Brassica rapa, post-emergence, 336 h, two weeks after treatment
Procedure, shortened: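 A greenhouse post-emergence herbicide test on turnip. Seeds were sown on the surface of potting soil in 3' plastic pots, lightly covered with screened soil and watered from below. Planting was timed so seedlings had 1 or 2 true leaves above the cotyledons at spraying, done in a hood with a fixed nozzle. Control or injury was scored by eye after two weeks.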

Bean (BN) [8] = assay: Pre-emergence herbicide test; type: in vivo, Phaseolus vulgaris var. Black Valentine; details: Phaseolus vulgaris, 336 h, two weeks after treatment
Procedure, shortened: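 Black Valentine bean was seeded in potting soil one day before spraying. Compound was applied pre-emergence at 8 lbs/acre (also 4 lbs/acre) in 38 gallons per acre. Plants were sub-irrigated and injury or control was rated visually after two weeks.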

## CCCCSc1nnc(N(C)C(=O)NC)s1 [Example 90]
Turnip (TP) [1]; 0.5 lb/acre
  pest or weed control at 560.425 g/ha: 10%
Turnip (TP) [1]; 1 lb/acre
  pest or weed control at 1120.85 g/ha: 10%
Turnip (TP) [1]; 2 lb/acre
  pest or weed control at 2241.7 g/ha: 60%
Turnip (TP) [1]; 4 lb/acre
  pest or weed control at 4483.4 g/ha: 80%
Johnson grass (JG); 0.5 lb/acre
  pest or weed control at 560.425 g/ha: 10%
Johnson grass (JG); 1 lb/acre
  pest or weed control at 1120.85 g/ha: 10%
Johnson grass (JG); 2 lb/acre
  pest or weed control at 2241.7 g/ha: 50%
Johnson grass (JG); 4 lb/acre
  pest or weed control at 4483.4 g/ha: 50%
Cotton (CT) [2]; 0.5 lb/acre
  pest or weed control at 560.425 g/ha: 100%
Cotton (CT) [2]; 1 lb/acre
  pest or weed control at 1120.85 g/ha: 100%
Cotton (CT) [2]; 2 lb/acre
  pest or weed control at 2241.7 g/ha: 100%
Cotton (CT) [2]; 4 lb/acre
  pest or weed control at 4483.4 g/ha: 100%
Corn (CN); 0.5 lb/acre
  pest or weed control at 560.425 g/ha: 10%
Corn (CN); 1 lb/acre
  pest or weed control at 1120.85 g/ha: 10%
Corn (CN); 2 lb/acre
  pest or weed control at 2241.7 g/ha: 10%
Corn (CN); 4 lb/acre
  pest or weed control at 4483.4 g/ha: 30%
Amaranth pigweed (PW); 0.5 lb/acre
  pest or weed control at 560.425 g/ha: 10%
Amaranth pigweed (PW); 1 lb/acre
  pest or weed control at 1120.85 g/ha: 30%
Amaranth pigweed (PW); 2 lb/acre
  pest or weed control at 2241.7 g/ha: 100%
Amaranth pigweed (PW); 4 lb/acre
  pest or weed control at 4483.4 g/ha: 100%
Bean (BN) [3]; 0.5 lb/acre
  pest or weed control at 560.425 g/ha: 90%
Bean (BN) [3]; 1 lb/acre
  pest or weed control at 1120.85 g/ha: 100%
Bean (BN) [3]; 2 lb/acre
  pest or weed control at 2241.7 g/ha: 100%
Bean (BN) [3]; 4 lb/acre
  pest or weed control at 4483.4 g/ha: 100%
Crabgrass (CG) [4]; 0.5 lb/acre
  pest or weed control at 560.425 g/ha: 30%
Crabgrass (CG) [4]; 1 lb/acre
  pest or weed control at 1120.85 g/ha: 60%
Crabgrass (CG) [4]; 2 lb/acre
  pest or weed control: 90%
Crabgrass (CG) [4]; 4 lb/acre
  pest or weed control at 4483.4 g/ha: 90%
Barnyard grass (BG); 0.5 lb/acre
  pest or weed control at 560.425 g/ha: 10%
Barnyard grass (BG); 1 lb/acre
  pest or weed control at 1120.85 g/ha: 10%
Barnyard grass (BG); 2 lb/acre
  pest or weed control at 2241.7 g/ha: 90%
Barnyard grass (BG); 4 lb/acre
  pest or weed control at 4483.4 g/ha: 90%
Cotton (CT) [5]; 0.5 lb/acre
  pest or weed control at 560.425 g/ha: 10%
Cotton (CT) [5]; 1 lb/acre
  pest or weed control at 1120.85 g/ha: 10%
Cotton (CT) [5]; 2 lb/acre
  pest or weed control at 2241.7 g/ha: 30%
Cotton (CT) [5]; 4 lb/acre
  pest or weed control at 4483.4 g/ha: 50%
Crabgrass (CG) [6]; 0.5 lb/acre
  pest or weed control at 560.425 g/ha: 10%
Crabgrass (CG) [6]; 1 lb/acre
  pest or weed control at 1120.85 g/ha: 10%
Crabgrass (CG) [6]; 2 lb/acre
  pest or weed control at 2241.7 g/ha: 90%
Crabgrass (CG) [6]; 4 lb/acre
  pest or weed control at 4483.4 g/ha: 90%
Turnip (TP) [7]; 0.5 lb/acre
  pest or weed control at 560.425 g/ha: 90%
Turnip (TP) [7]; 1 lb/acre
  pest or weed control at 1120.85 g/ha: 100%
Turnip (TP) [7]; 2 lb/acre
  pest or weed control at 2241.7 g/ha: 100%
Turnip (TP) [7]; 4 lb/acre
  pest or weed control at 4483.4 g/ha: 100%
Bean (BN) [8]; 0.5 lb/acre
  pest or weed control at 560.425 g/ha: 10%
Bean (BN) [8]; 1 lb/acre
  pest or weed control at 1120.85 g/ha: 10%
Bean (BN) [8]; 2 lb/acre
  pest or weed control at 2241.7 g/ha: 40%
Bean (BN) [8]; 4 lb/acre
  pest or weed control at 4483.4 g/ha: 70%

Reference: patent US4175081A, “5-Substituted thiadiazole ureas” (priority 1977, dated 1979)
